Experiments:
Adenosine receptor A1 [1] = molecular target: T1, Adenosine receptor A1 (Rattus norvegicus, UniProt P25099); assay: Binding affinity towards adenosine A1 receptor in rat brain membrane(KD); format: tissue-based
T1 sequence (P25099 whole entry): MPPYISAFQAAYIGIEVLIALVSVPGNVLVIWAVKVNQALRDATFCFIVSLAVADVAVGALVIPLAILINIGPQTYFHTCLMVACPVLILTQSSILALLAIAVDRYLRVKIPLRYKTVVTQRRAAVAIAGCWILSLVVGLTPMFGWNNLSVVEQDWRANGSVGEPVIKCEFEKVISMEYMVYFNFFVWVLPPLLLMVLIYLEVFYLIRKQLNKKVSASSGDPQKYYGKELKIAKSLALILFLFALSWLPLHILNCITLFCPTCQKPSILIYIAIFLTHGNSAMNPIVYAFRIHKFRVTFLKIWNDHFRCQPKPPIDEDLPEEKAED

[2] = molecular target: T2, Adenosine receptor A1 (Rattus norvegicus) (UniProt P25099); assay: Bmax value against A1 receptor
T2 sequence (whole entry): T1 sequence (P25099 whole entry)

Adenosine receptor A1 [3] = molecular target: T1, Adenosine receptor A1; assay: Inhibition of photolabeling of 34 kDa polypeptide in adenosine A1 receptor

| Compound | Kd (Adenosine receptor A1 [1]) [nM] | Bmax [2] [fmol/mg] | IC50 (Adenosine receptor A1 [3]) [nM] |
| --- | --- | --- | --- |
| CCCn1c(=O)c2nc(-c3ccc(OCC(=O)O)cc3)[nH]c2n(CCc2ccc(N)c(I)c2)c1=O | 0.8 | 485 |  |
| CCCn1c(=O)c2nc(-c3ccc(OCC(=O)O)cc3)[nH]c2n(CCc2ccc(N=[N+]=[N-])c(I)c2)c1=O | 1.2 |  |  |
| CCCn1c(=O)c2nc(-c3ccc(OCC(=O)O)cc3)[nH]c2n(CCc2ccc(N)cc2)c1=O |  |  | 16 |
| CCCn1c(=O)c2nc(-c3ccc(OCC(=O)O)cc3)[nH]c2n(Cc2ccc(N)c(I)c2)c1=O | 0.8 | 485 |  |
